Converted amounts (≈) assume the structure as drawn.
System: HIV-1 (RF)
Assay: HIV RNA assay: microplate based compound evaluation in HIV-1 infected MT-2 cells
Assay type: cell-based
Settings: Human immunodeficiency virus 1, MT2, 72 h; HIV-1 (RF) infected MT-2 cells, 3 days of culture; virus dilutions selected to standardize the inoculum to this value; read-out: IC90 value (concentration of compound required to reduce the HIV RNA level by 90%)
Description: Plasmid pDAB 72 containing both gag and pol sequences of BH 10 (bp 113-1816) cloned into PTZ 19R was prepared according to Erickson-Viitanen et al. AIDS Research and Human Retroviruses 1989, 5, 577. The plasmid was linearized with Bam HI prior to the generation of in vitro RNA transcripts using the Riboprobe Gemini system 11 kit (Promega) with T7 RNA polymerase. Synthesized RNA was purified by treatment with RNase free DNAse (Promega), phenol-chloroform extraction, and ethanol precipitation. RNA transcripts were dissolved in water, and stored at −70° C. The concentration of RNA was determined from the A260.
Biotinylated capture probes were purified by HPLC after synthesis on an Applied Biosystems (Foster City, Calif.) DNA synthesizer by addition of biotin to the 5′ terminal end of the oligonucleotide, using the biotin-phosphoramidite reagent of Cocuzza, Tet. Lett. 1989, 30, 6287. […]
MT-2 and MTA cells were maintained in RPM 1640 supplemented with 5% fetal calf serum (FCS) for MT-2 cells or 10% FCS for MTA cells, 2 mM L-glutamine and 50 μg/mL gentamycin, all from Gibco. […] Infectious titers of HIV-1 (RF) stocks were 1-3×10^7 PFU (plaque forming units)/mL as measured by plaque assay on MT-2 cells (see below). […]

Question: For `Nc1ccn([C@H]2CC[C@@H](CO)O2)c(=O)n1` [ddC, dideoxycytidine], which IC90 is on record?
Answer: The IC90 was 0.2 µg/mL (≈ 0.947 µM).
